In PubChem BioAssay (NCI):
Where “and” joins values, the source holds several entries; their conditions need not be identical. Identical values can stand only once.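 48-hour exposure; five concentrations; linearly interpolated endpoints. At the GI50, growth is halved. At the TGI there is no net growth.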

What was measured:
Test in all cases: inhibition of tumour cell growth, NCI panel, 48 h
HOP-62 NSCLC = system: HOP-62 NSCLC
HT29 colon = system: HT29 colon
KM12 colon = system: KM12 colon
NCI-H23 lung = system: NCI-H23 lung
SK-OV-3 ovarian = system: SK-OV-3 ovarian
UACC-257 melanoma = system: UACC-257 melanoma
OVCAR-4 ovarian = system: OVCAR-4 ovarian
MDA-MB-231 breast = system: MDA-MB-231 breast
T-47D breast = system: T-47D breast
RXF 393 renal = system: RXF 393 renal

SMILES	TGI (HOP-62 NSCLC)	TGI (HT29 colon)	TGI (KM12 colon)	TGI (NCI-H23 lung)	TGI (SK-OV-3 ovarian)	TGI (UACC-257 melanoma)	TGI (OVCAR-4 ovarian)	GI50 (HOP-62 NSCLC)	GI50 (HT29 colon)	GI50 (KM12 colon)	GI50 (MDA-MB-231 breast)	TGI (MDA-MB-231 breast)	GI50 (NCI-H23 lung)	GI50 (OVCAR-4 ovarian)	GI50 (SK-OV-3 ovarian)	GI50 (T-47D breast)	TGI (T-47D breast)	TGI (RXF 393 renal)	GI50 (UACC-257 melanoma)	GI50 (RXF 393 renal)
CN1CC(C(=O)C2C(=O)c3ccccc3C2=O)C(=O)C(=O)C(C(=O)C2C(=O)c3ccccc3C2=O)C1 (configuration not stated)	> 10 µM	> 100 µM	> 100 µM	> 100 µM	> 100 µM	> 100 µM														
CC1=CCC23C(C1)OC(Br)(C=CC2(C)O)C3(C)C (configuration not stated)		> 100 µM	> 100 µM	> 100 µM		> 100 µM	> 100 µM													
CCN1c2ccccc2C(Cl)(c2ccc(N(C)C)cc2)c2ccccc21	17.3 µM	12.4 µM	15.6 µM	14.4 µM	18.2 µM		25.3 µM	4.27 µM	2.88 µM	4.41 µM	13.1 µM	37.5 µM	3.04 µM	11.9 µM	4.97 µM	4.22 µM	64.2 µM			
CCOC(=O)C1SC(=Nc2ccc(Cl)c(Cl)c2)N=C1C (configuration not stated)	> 100 µM	66.8 µM	> 100 µM	> 100 µM	> 100 µM	> 100 µM	62 µM											52.3 µM		
CCOC(=O)/C=C/C(C(=O)/C=C/c1ccc(O)c(OC)c1)=C(O)\C=C\c1ccc(O)c(OC)c1	16.1 µM	6.6 µM	> 100 µM	4.42 µM	25.4 µM	4.9 µM	25.7 µM	3.19 µM	1.83 µM	3.96 µM	2 µM	8.55 µM	1.73 µM	7.36 µM	8.07 µM	8.07 µM	> 100 µM		2.06 µM	
Fc1ccc(C2SCc3nc4ccccc4n32)cc1 (configuration not stated)	> 100 µM	> 100 µM	> 100 µM	> 100 µM	> 100 µM		> 100 µM											70.7 µM		
O=C(OCC1CO1)c1cccs1 (configuration not stated)	> 100 µM	> 100 µM	> 100 µM	> 100 µM	> 100 µM	> 100 µM	> 100 µM											> 100 µM		
CC(=O)OCC1OC(OC2CC3C(C)(C)C(O)CC[C@]3(C)C3CCC45CC4(CC[C@H]5C(C)CC(O)C4OC4(C)C)[C@]23C)C(O)C(O)C1O (some centres not stated)	19.1 µM and 29.5 µM	15.7 µM and 27.7 µM	15.6 µM and 17.3 µM	16.5 µM and 27.5 µM	15 µM and 29.2 µM	16.1 µM and 22.6 µM	15.8 µM and 30.7 µM	14.2 µM	12.9 µM	4.66 µM			12.2 µM	13.9 µM	15.7 µM			10.7 µM and 38.5 µM		9.7 µM
COc1ccc(-n2c3c(c4c(CN5CCOCC5)c(O)ccc42)CCc2ccccc2C3=O)cc1	> 100 µM	0.0934 µM	> 100 µM	> 100 µM	> 100 µM	> 100 µM		> 100 µM		> 100 µM	52.1 µM	> 100 µM	24.9 µM		> 100 µM	> 100 µM	> 100 µM	> 100 µM	> 100 µM	14.8 µM
CO[C@@H]1CC(=O)C2(CC(=O)O[C@@H]2/C=C(\C)CCC=C(C)C)C[C@@H]1O (some centres not stated)	2.64 µM	> 50 µM	3.97 µM	1.14 µM	5.3 µM	2.52 µM		1.06 µM	1.35 µM	1.03 µM	0.642 µM	1.66 µM	0.358 µM		1.62 µM	0.522 µM	1.26 µM	2.92 µM	0.883 µM	0.818 µM
O=C(C(=O)N1CC2C=CC1CC2)c1c[nH]c2ccccc12 (configuration not stated)	> 100 µM	> 100 µM	> 100 µM		> 100 µM	> 100 µM	> 100 µM											> 100 µM		
Nc1c(C(=O)Nc2ccccc2)[n+]([O-])c2ccccc2[n+]1[O-]	34.4 µM	37 µM	30.4 µM	28.8 µM	> 100 µM	59.4 µM	33.5 µM													
COc1ccc(/C=C\c2cc(OC)c(OC)c(OC)c2)cc1OC(=O)CCC(=O)O	> 100 µM	12.2 µM		> 100 µM	> 100 µM		> 100 µM								0.0442 µM		97.1 µM		< 0.0001 µM	
COc1cc2c(cc1O)CC13CCC(=O)N1CCc1cc(OC)c(O)c-2c13 (configuration not stated)	> 68.1 µM	> 68.1 µM		> 68.1 µM		> 68.1 µM	> 68.1 µM											> 68.1 µM		
Cc1cc(=O)oc2cc(OCc3c(F)cccc3Cl)ccc12	38 µM			> 100 µM		> 100 µM	> 100 µM					> 100 µM					> 100 µM	27.5 µM		
COc1ccccc1NC(=O)C1=C(C)NC(C)=C(C(=O)Nc2ccccc2OC)C1c1ccc(C)cc1	> 100 µM	> 100 µM	> 100 µM	> 100 µM	> 100 µM	> 100 µM	> 100 µM											> 100 µM		
Cc1ccc(-c2cc(C3=CC(=O)C=CC3=O)n(-c3ccc(S(N)(=O)=O)cc3)n2)cc1	> 100 µM	> 100 µM	> 100 µM	> 100 µM		> 100 µM		69.7 µM	56.4 µM	24 µM	20.6 µM	72.8 µM	32.9 µM			46.8 µM	> 100 µM	> 100 µM	> 100 µM	> 100 µM
CCN(CCCl)CCCNc1c2ccccc2nc2ccc(OC)cc12								200 µM	82.3 µM	268 µM			382 µM	360 µM	446 µM				457 µM	601 µM
O=Nc1ccc2ccccc2c1O		13.4 µM	19.2 µM	16.1 µM	45.5 µM	4.19 µM	5.32 µM		3.46 µM	6.23 µM	10 µM	25.1 µM	3.18 µM	1.89 µM	19.9 µM	2.75 µM	6.08 µM	27.3 µM	2.13 µM	14 µM
CC(=O)OC1CC2(O)C3CCC4CC(O)CCC4(C)C3CCC2(C)C1C1=CC(=O)OC1 (configuration not stated)	0.178 µM	0.779 µM	1.87 µM	0.137 µM	0.642 µM	0.773 µM	0.19 µM					6.61 µM					0.73 µM			
